Experimental data as given in PubChem BioAssay AID2060600 (Molecular Pharmacology Branch, DTP, NCI, 2025).

Test system: 996289-038-R-J1-PDC complex spheroid viability
Experiment: Anticancer human tumor 996289-038-R-J1-PDC patient-derived colon adenocarcinoma cell line growth inhibition [CLK]
Conditions: for IC50: curve of first compound; for viability, T/C: stronger effect = lower value
Method in brief: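 Patient-derived tumor cells grown as complex spheroids with HUVEC endothelial cells and mesenchymal stem cells, treated with drug combinations. Concentrations descend in half-log steps from near clinical Cmax, or from 10 microM if Cmax unknown.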
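Also: spheroids exposed to the agents for 7 days before readout.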

**Q.** With CC(C)CC(NC(=O)C(Cc1ccccc1)NC(=O)c1cnccn1)B(O)O (centres undefined) + CNC(=O)c1ccc(Nc2nc(OC3CCCC3)c3c(-c4ccc5nc(C)oc5c4)c[nH]c3n2)c(OC)c1 as the molecule, how does the IC50 (second compound 0.0316 µM) read?
**A.** 4.57 nM

**Q.** What about the IC50 (second compound 0.1 µM) of the same molecule?
**A.** 4.21 nM

**Q.** And the IC50 (second compound 0.316 µM)?
**A.** 1.84 nM

**Q.** And the IC50 (second compound 1 µM)?
**A.** 1.32 nM

**Q.** And the IC50 (second compound 3.16 µM)?
**A.** 1.14 nM

**Q.** And the IC50 (second compound 10 µM)?
**A.** 1.1 nM

**Q.** What about the viability, T/C (second compound 0.0316 µM, first compound 0.000949 µM) of the same molecule?
**A.** 121%

**Q.** And the viability, T/C (second compound 0.0316 µM, first compound 0.003 µM)?
**A.** 76.2%

**Q.** And the viability, T/C (second compound 0.0316 µM, first compound 0.00949 µM)?
**A.** 4.49%

**Q.** What about the viability, T/C (second compound 0.0316 µM, first compound 0.03 µM) of the same molecule?
**A.** 0.95%

**Q.** And the viability, T/C (second compound 0.0316 µM, first compound 0.0949 µM)?
**A.** 3.14%

**Q.** What about the viability, T/C (second compound 0.0316 µM, first compound 0.3 µM) of the same molecule?
**A.** 0.51%

**Q.** And the viability, T/C (second compound 0.1 µM, first compound 0.000949 µM)?
**A.** 139%

**Q.** What about the viability, T/C (second compound 0.1 µM, first compound 0.003 µM) of the same molecule?
**A.** 70%

**Q.** And the viability, T/C (second compound 0.1 µM, first compound 0.00949 µM)?
**A.** 1.94%

**Q.** And the viability, T/C (second compound 0.1 µM, first compound 0.03 µM)?
**A.** 0.61%

**Q.** What about the viability, T/C (second compound 0.1 µM, first compound 0.0949 µM) of the same molecule?
**A.** 0.54%

**Q.** What about the viability, T/C (second compound 0.1 µM, first compound 0.3 µM) of the same molecule?
**A.** 0.26%

**Q.** And the viability, T/C (second compound 0.316 µM, first compound 0.000949 µM)?
**A.** 76.2%

**Q.** What about the viability, T/C (second compound 0.316 µM, first compound 0.003 µM) of the same molecule?
**A.** 30.4%

**Q.** What about the viability, T/C (second compound 0.316 µM, first compound 0.00949 µM) of the same molecule?
**A.** 0.98%

**Q.** What about the viability, T/C (second compound 0.316 µM, first compound 0.03 µM) of the same molecule?
**A.** 1.34%

**Q.** And the viability, T/C (second compound 0.316 µM, first compound 0.0949 µM)?
**A.** 0.59%

**Q.** And the viability, T/C (second compound 0.316 µM, first compound 0.3 µM)?
**A.** 1.22%

**Q.** And the viability, T/C (second compound 1 µM, first compound 0.000949 µM)?
**A.** 66.4%

**Q.** What about the viability, T/C (second compound 1 µM, first compound 0.003 µM) of the same molecule?
**A.** 9.51%

**Q.** And the viability, T/C (second compound 1 µM, first compound 0.00949 µM)?
**A.** 0.47%

**Q.** What about the viability, T/C (second compound 1 µM, first compound 0.03 µM) of the same molecule?
**A.** 0.42%

**Q.** What about the viability, T/C (second compound 1 µM, first compound 0.0949 µM) of the same molecule?
**A.** 3.6%

**Q.** And the viability, T/C (second compound 1 µM, first compound 0.3 µM)?
**A.** 1.03%

**Q.** What about the viability, T/C (second compound 3.16 µM, first compound 0.000949 µM) of the same molecule?
**A.** 58.1%

**Q.** What about the viability, T/C (second compound 3.16 µM, first compound 0.003 µM) of the same molecule?
**A.** 6.51%

**Q.** And the viability, T/C (second compound 3.16 µM, first compound 0.00949 µM)?
**A.** 1.11%

**Q.** And the viability, T/C (second compound 3.16 µM, first compound 0.03 µM)?
**A.** 0.54%

**Q.** What about the viability, T/C (second compound 3.16 µM, first compound 0.0949 µM) of the same molecule?
**A.** 0.85%

**Q.** And the viability, T/C (second compound 3.16 µM, first compound 0.3 µM)?
**A.** 1.44%

**Q.** And the viability, T/C (second compound 10 µM, first compound 0.000949 µM)?
**A.** 56.3%

**Q.** What about the viability, T/C (second compound 10 µM, first compound 0.003 µM) of the same molecule?
**A.** 6.54%

**Q.** What about the viability, T/C (second compound 10 µM, first compound 0.00949 µM) of the same molecule?
**A.** 1.51%

**Q.** And the viability, T/C (second compound 10 µM, first compound 0.03 µM)?
**A.** 0.65%

**Q.** What about the viability, T/C (second compound 10 µM, first compound 0.0949 µM) of the same molecule?
**A.** 0.7%

**Q.** And the viability, T/C (second compound 10 µM, first compound 0.3 µM)?
**A.** 2.05%

**Q.** Which IC50 (second compound 0.0316 µM) does the source give for COc1cccc2c1C(=O)c1c(O)c3c(c(O)c1C2=O)CC(O)(C(=O)CO)CC3OC1CC(N)C(O)C(C)O1 (centres undefined) + CNC(=O)c1ccc(Nc2nc(OC3CCCC3)c3c(-c4ccc5nc(C)oc5c4)c[nH]c3n2)c(OC)c1 here?
**A.** 4460 nM

**Q.** What about the IC50 (second compound 0.1 µM) of the same molecule?
**A.** 2150 nM

**Q.** What about the IC50 (second compound 0.316 µM) of the same molecule?
**A.** 983 nM

**Q.** And the IC50 (second compound 1 µM)?
**A.** 173 nM

**Q.** And the IC50 (second compound 3.16 µM)?
**A.** < 31.6 nM

**Q.** What about the IC50 (second compound 10 µM) of the same molecule?
**A.** 66.9 nM

**Q.** And the viability, T/C (second compound 0.0316 µM, first compound 0.0316 µM)?
**A.** 119%

**Q.** What about the viability, T/C (second compound 0.0316 µM, first compound 0.1 µM) of the same molecule?
**A.** 98.7%

**Q.** What about the viability, T/C (second compound 0.0316 µM, first compound 0.316 µM) of the same molecule?
**A.** 87.5%

**Q.** And the viability, T/C (second compound 0.0316 µM, first compound 1 µM)?
**A.** 68.8%

**Q.** And the viability, T/C (second compound 0.0316 µM, first compound 3.16 µM)?
**A.** 59.9%

**Q.** And the viability, T/C (second compound 0.0316 µM, first compound 10 µM)?
**A.** 36%

**Q.** And the viability, T/C (second compound 0.1 µM, first compound 0.0316 µM)?
**A.** 104%

**Q.** What about the viability, T/C (second compound 0.1 µM, first compound 0.1 µM) of the same molecule?
**A.** 110%

**Q.** And the viability, T/C (second compound 0.1 µM, first compound 0.316 µM)?
**A.** 79.7%

**Q.** What about the viability, T/C (second compound 0.1 µM, first compound 1 µM) of the same molecule?
**A.** 59.9%

**Q.** What about the viability, T/C (second compound 0.1 µM, first compound 3.16 µM) of the same molecule?
**A.** 50%

**Q.** And the viability, T/C (second compound 0.1 µM, first compound 10 µM)?
**A.** 28.7%

**Q.** What about the viability, T/C (second compound 0.316 µM, first compound 0.0316 µM) of the same molecule?
**A.** 75.3%

**Q.** And the viability, T/C (second compound 0.316 µM, first compound 0.1 µM)?
**A.** 73.4%

**Q.** What about the viability, T/C (second compound 0.316 µM, first compound 0.316 µM) of the same molecule?
**A.** 63.1%

**Q.** And the viability, T/C (second compound 0.316 µM, first compound 1 µM)?
**A.** 51%

**Q.** What about the viability, T/C (second compound 0.316 µM, first compound 3.16 µM) of the same molecule?
**A.** 31%

**Q.** And the viability, T/C (second compound 0.316 µM, first compound 10 µM)?
**A.** 18.5%

**Q.** What about the viability, T/C (second compound 1 µM, first compound 0.0316 µM) of the same molecule?
**A.** 64.8%

**Q.** And the viability, T/C (second compound 1 µM, first compound 0.1 µM)?
**A.** 56.6%

**Q.** And the viability, T/C (second compound 1 µM, first compound 0.316 µM)?
**A.** 42.2%

**Q.** And the viability, T/C (second compound 1 µM, first compound 1 µM)?
**A.** 28.1%

**Q.** And the viability, T/C (second compound 1 µM, first compound 3.16 µM)?
**A.** 14.3%

**Q.** And the viability, T/C (second compound 1 µM, first compound 10 µM)?
**A.** 10.3%

**Q.** What about the viability, T/C (second compound 3.16 µM, first compound 0.0316 µM) of the same molecule?
**A.** 49.3%

**Q.** What about the viability, T/C (second compound 3.16 µM, first compound 0.1 µM) of the same molecule?
**A.** 48.2%

**Q.** And the viability, T/C (second compound 3.16 µM, first compound 0.316 µM)?
**A.** 38.5%

**Q.** And the viability, T/C (second compound 3.16 µM, first compound 1 µM)?
**A.** 19.5%

**Q.** And the viability, T/C (second compound 3.16 µM, first compound 3.16 µM)?
**A.** 10.3%

**Q.** What about the viability, T/C (second compound 3.16 µM, first compound 10 µM) of the same molecule?
**A.** 7.76%

**Q.** What about the viability, T/C (second compound 10 µM, first compound 0.0316 µM) of the same molecule?
**A.** 53.1%

**Q.** And the viability, T/C (second compound 10 µM, first compound 0.1 µM)?
**A.** 47.6%

**Q.** What about the viability, T/C (second compound 10 µM, first compound 0.316 µM) of the same molecule?
**A.** 36.6%

**Q.** What about the viability, T/C (second compound 10 µM, first compound 1 µM) of the same molecule?
**A.** 18.1%

**Q.** And the viability, T/C (second compound 10 µM, first compound 3.16 µM)?
**A.** 8.69%

**Q.** What about the viability, T/C (second compound 10 µM, first compound 10 µM) of the same molecule?
**A.** 7.86%
